Laboratory results taken from ChEMBL document CHEMBL2169754, “Imidazo[1,2-a]pyridines That Directly Interact with Hepatitis C NS4B: Initial Preclinical Characterization” (ACS Med Chem Lett, 2012).

Columns and labels:
Hepatitis C virus [1] = assay: Antiviral activity against wild type HCV genotype 1a infected in human HuH7 cells after 48 hrs by luciferase reporter gene assay; assay type: functional, organism-based, Hepacivirus hominis; conditions: subtype 1a, Huh-7, 48 h
Hepatitis C virus [2] = assay: Antiviral activity against wild type HCV genotype 1b infected in human HuH7 cells after 48 hrs by luciferase reporter gene assay; assay type: functional, organism-based, Hepacivirus hominis; conditions: Huh-7, 48 h
Hepatitis C virus [3] = assay: Displacement of [3H]-3-(1-(3-chloro-6-isopropyl-8-(trifluoromethyl)imidazo[1,2-a]pyridine-2-carbonyl)piperidin-4-yl)oxazolidin-2-one from HCV genotype 1b His6-tagged NS4B expressed in baculovirus infected Sf9 cells after overnight incubation; parameters: species or system Hepatitis C virus subtype 1b
[4] = Solubility of the compound; assay type: physicochemical
[5] = AUC (0 to 24 hrs) in Sprague-Dawley rat at 5 mg/kg, po; assay type: ADME, organism-based; parameters: time < 24 hr, dose 5 mg/kg, route oral; conditions: plasma
[6] = Oral bioavailability in Sprague-Dawley rat at 5 mg/kg; assay type: ADME, organism-based; conditions: in vivo
[7] = Half life in Sprague-Dawley rat at 5 mg/kg, po; assay type: ADME, organism-based; parameters: dose 5 mg/kg, route oral; conditions: in vivo
[8] = Clearance in Sprague-Dawley rat at 1 mg/kg, iv; assay type: ADME, organism-based; parameters: dose 1 mg/kg, route intravenous; conditions: in vivo
[9] = Volume of distribution at steady state in Sprague-Dawley rat at 1 mg/kg, iv; assay type: ADME, organism-based; parameters: dose 1 mg/kg, route intravenous; conditions: in vivo, read-out: Vdss
[10] = Oral bioavailability in beagle dog at 5 mg/kg; assay type: ADME, organism-based, Canis lupus familiaris; conditions: in vivo
[11] = AUC (0 to 24 hrs) in beagle dog at 5 mg/kg, po; assay type: ADME, organism-based, Canis lupus familiaris; parameters: time < 24 hr, dose 5 mg/kg, route oral; conditions: plasma
[12] = Volume of distribution at steady state in beagle dog at 1 mg/kg, iv; assay type: ADME, organism-based, Canis lupus familiaris; parameters: dose 1 mg/kg, route intravenous; conditions: in vivo, read-out: Vdss
[13] = Half life in beagle dog at 5 mg/kg, po; assay type: ADME, organism-based, Canis lupus familiaris; parameters: dose 5 mg/kg, route oral; conditions: in vivo
[14] = Clearance in beagle dog at 1 mg/kg, iv; assay type: ADME, organism-based, Canis lupus familiaris; parameters: dose 1 mg/kg, route intravenous; conditions: in vivo
Hepatitis C virus [15] = assay: Ratio of EC50 for HCV genotype 1b expressing NS4B H94N mutant to EC50 for wild type HCV genotype 1b; assay type: functional, Hepacivirus hominis
Hepatitis C virus [16] = assay: Ratio of EC50 for HCV genotype 1b expressing NS4B V105N mutant to EC50 for wild type HCV genotype 1b; assay type: functional, Hepacivirus hominis
Hepatitis C virus [17] = assay: Antiviral activity against HCV genotype 1b expressing NS5A L31V mutant transiently infected in human HuH7 cells after 48 hrs by luciferase reporter gene assay; assay type: functional, organism-based, Hepacivirus hominis; conditions: Huh-7, 48 h
Hepatitis C virus [18] = assay: Antiviral activity against HCV genotype 1b expressing NS5B M414T mutant transiently infected in human HuH7 cells after 48 hrs by luciferase reporter gene assay; assay type: functional, organism-based, Hepacivirus hominis; conditions: Huh-7, 48 h
Hepatitis C virus [19] = assay: Antiviral activity against HCV genotype 1b expressing NS3 A156T mutant transiently infected in human HuH7 cells after 48 hrs by luciferase reporter gene assay; assay type: functional, organism-based, Hepacivirus hominis; conditions: Huh-7, 48 h
Hepatitis C virus [20] = assay: Antiviral activity against HCV genotype 1b expressing NS4B F98L mutant transiently infected in human HuH7 cells after 48 hrs by luciferase reporter gene assay; assay type: functional, organism-based, Hepacivirus hominis; conditions: Huh-7, 48 h
Hepatitis C virus [21] = assay: Antiviral activity against HCV genotype 1b expressing NS4B V105L mutant transiently infected in human HuH7 cells after 48 hrs by luciferase reporter gene assay; assay type: functional, organism-based, Hepacivirus hominis; conditions: Huh-7, 48 h
Hepatitis C virus [22] = assay: Antiviral activity against HCV genotype 1b expressing NS4B H94R mutant transiently infected in human HuH7 cells after 48 hrs by luciferase reporter gene assay; assay type: functional, organism-based, Hepacivirus hominis; conditions: Huh-7, 48 h
Hepatitis C virus [23] = assay: Antiviral activity against HCV genotype 1b expressing NS4B V105M mutant stably infected in human HuH7 cells after 48 hrs by luciferase reporter gene assay; assay type: functional, organism-based, Hepacivirus hominis; conditions: Huh-7, 48 h
Hepatitis C virus [24] = assay: Antiviral activity against HCV genotype 1b expressing NS4B H94N mutant stably infected in human HuH7 cells after 48 hrs by luciferase reporter gene assay; assay type: functional, organism-based, Hepacivirus hominis; conditions: Huh-7, 48 h
Cytochrome P450 3A4 = Cytochrome P450 3A4 (Homo sapiens, UniProt P08684); assay: Inhibition of CYP3A4 in human liver microsomes after 7 mins by LC/MS/MS analysis; assay type: ADME, Microsome
Chain of Cytochrome P450 3A4 (P08684 whole entry): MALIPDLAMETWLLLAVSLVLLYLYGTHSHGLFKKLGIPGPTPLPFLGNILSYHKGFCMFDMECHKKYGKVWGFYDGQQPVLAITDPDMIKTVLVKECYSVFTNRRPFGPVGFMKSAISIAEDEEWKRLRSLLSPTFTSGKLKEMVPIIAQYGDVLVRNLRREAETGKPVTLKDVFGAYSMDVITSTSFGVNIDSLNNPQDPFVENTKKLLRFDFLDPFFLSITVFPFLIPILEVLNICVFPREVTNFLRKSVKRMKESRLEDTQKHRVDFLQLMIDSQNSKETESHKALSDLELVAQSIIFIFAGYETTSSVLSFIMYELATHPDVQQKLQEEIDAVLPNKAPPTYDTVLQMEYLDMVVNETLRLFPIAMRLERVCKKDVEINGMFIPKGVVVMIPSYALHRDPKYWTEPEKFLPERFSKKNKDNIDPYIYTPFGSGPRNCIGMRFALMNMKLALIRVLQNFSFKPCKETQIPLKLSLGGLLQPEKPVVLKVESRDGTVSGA

Cytochrome P450 2D6 = Cytochrome P450 2D6 (Homo sapiens, UniProt P10635); assay: Inhibition of CYP2D6 in human liver microsomes after 10 mins by LC/MS/MS analysis; assay type: ADME, Microsome
Chain of Cytochrome P450 2D6 (P10635 whole entry): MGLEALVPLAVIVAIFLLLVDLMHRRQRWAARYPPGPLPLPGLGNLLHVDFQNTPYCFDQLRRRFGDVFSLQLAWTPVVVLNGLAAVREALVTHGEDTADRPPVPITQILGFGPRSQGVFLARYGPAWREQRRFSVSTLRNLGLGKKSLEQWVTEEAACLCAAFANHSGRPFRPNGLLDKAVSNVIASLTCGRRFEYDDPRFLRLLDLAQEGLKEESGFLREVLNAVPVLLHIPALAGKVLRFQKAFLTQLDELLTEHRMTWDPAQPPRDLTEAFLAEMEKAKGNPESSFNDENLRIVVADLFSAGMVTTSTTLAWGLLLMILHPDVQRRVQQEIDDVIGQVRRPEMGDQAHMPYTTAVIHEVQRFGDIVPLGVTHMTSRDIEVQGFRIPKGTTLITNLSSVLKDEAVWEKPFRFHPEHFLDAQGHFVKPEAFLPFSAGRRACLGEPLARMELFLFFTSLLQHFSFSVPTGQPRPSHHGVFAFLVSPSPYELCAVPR

Cytochrome P450 2C19 = Cytochrome P450 2C19 (Homo sapiens, UniProt P33261); assay: Inhibition of CYP2C19 in human liver microsomes after 10 mins by LC/MS/MS analysis; assay type: ADME, Microsome
Chain of Cytochrome P450 2C19 (P33261 whole entry): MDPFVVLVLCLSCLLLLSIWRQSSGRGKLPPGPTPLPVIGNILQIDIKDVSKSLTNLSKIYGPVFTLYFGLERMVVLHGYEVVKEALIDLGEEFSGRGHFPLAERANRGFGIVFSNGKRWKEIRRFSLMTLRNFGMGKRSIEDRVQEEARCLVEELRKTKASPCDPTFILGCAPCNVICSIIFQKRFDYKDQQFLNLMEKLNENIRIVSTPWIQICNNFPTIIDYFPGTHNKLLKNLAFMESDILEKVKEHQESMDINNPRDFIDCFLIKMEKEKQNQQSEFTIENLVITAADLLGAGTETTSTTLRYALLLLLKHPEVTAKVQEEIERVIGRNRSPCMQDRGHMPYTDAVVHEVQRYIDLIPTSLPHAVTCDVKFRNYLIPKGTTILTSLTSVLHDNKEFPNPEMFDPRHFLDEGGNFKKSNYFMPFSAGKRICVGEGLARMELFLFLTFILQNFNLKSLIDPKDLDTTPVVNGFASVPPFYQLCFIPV

Cytochrome P450 1A2 = target: T1, Cytochrome P450 1A2 (Homo sapiens, UniProt P05177); assay: Inhibition of CYP1A2 in human liver microsomes after 10 mins by LC/MS/MS analysis; assay type: ADME, Microsome
T1 sequence (P05177 whole entry): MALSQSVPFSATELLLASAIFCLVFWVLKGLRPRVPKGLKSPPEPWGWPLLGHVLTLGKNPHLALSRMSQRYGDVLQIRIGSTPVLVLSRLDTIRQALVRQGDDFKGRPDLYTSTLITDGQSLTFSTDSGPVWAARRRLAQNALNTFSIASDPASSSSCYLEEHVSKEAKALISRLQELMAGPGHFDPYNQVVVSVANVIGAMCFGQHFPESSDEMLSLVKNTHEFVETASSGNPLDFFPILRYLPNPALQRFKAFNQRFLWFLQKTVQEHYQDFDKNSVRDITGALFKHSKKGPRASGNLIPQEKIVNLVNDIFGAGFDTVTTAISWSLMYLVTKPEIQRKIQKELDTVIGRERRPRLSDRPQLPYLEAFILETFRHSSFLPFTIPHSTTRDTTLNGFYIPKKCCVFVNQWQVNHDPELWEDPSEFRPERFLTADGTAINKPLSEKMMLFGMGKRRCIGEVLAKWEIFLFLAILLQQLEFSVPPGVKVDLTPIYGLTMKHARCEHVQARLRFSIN

Cytochrome P450 2C9 = Cytochrome P450 2C9 (Homo sapiens, UniProt P11712); assay: Inhibition of CYP2C9 in human liver microsomes after 10 mins by LC/MS/MS analysis; assay type: ADME, Microsome
Chain of Cytochrome P450 2C9 (P11712 whole entry): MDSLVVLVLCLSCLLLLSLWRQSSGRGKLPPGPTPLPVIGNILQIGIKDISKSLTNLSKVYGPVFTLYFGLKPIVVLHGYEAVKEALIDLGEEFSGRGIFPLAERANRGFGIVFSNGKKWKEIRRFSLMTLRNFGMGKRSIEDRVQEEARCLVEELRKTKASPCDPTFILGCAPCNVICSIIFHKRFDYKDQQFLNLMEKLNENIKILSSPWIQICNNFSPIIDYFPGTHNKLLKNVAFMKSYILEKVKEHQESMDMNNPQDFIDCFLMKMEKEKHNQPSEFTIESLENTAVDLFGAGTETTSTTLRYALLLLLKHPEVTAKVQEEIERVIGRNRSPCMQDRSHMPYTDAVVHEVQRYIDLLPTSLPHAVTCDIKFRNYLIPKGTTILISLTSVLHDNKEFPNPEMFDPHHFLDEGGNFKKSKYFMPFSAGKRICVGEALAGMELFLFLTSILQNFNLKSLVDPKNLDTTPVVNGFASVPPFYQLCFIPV

Liver microsomes [25] = assay: Drug metabolism in rat liver microsomes assessed as reactive metabolite formation at 10 uM after 30 mins by glutathione trapping assay; assay type: ADME, Microsome; conditions: 0.5 h
Liver microsomes [26] = assay: Drug metabolism in human liver microsomes assessed as reactive metabolite formation at 10 uM after 30 mins by glutathione trapping assay; assay type: ADME, Microsome; conditions: 0.5 h

O=C(NCc1cccs1)c1cc2nc(-c3ccco3)cc(C(F)(F)Cl)n2n1 [ANGUIZOLE]
EC50 (Hepatitis C virus [1]): 740 nM | EC50 (Hepatitis C virus [2]): 450 nM | IC50 (Hepatitis C virus [3]): 22 nM

O=C(c1nc2c(C(F)(F)F)cc(-c3ccoc3)cn2c1Cl)N1CCC(N2CCCC2)CC1
solubility [4]: > 500 µM | EC50 (Hepatitis C virus [1]): > 50000 nM | EC50 (Hepatitis C virus [2]): > 50000 nM | IC50 (Hepatitis C virus [3]): > 50000 nM

[3H]CC([3H])(C)c1cc(C(F)(F)F)c2nc(C(=O)N3CCC(N4CCOC4=O)CC3)c(Cl)n2c1 (stereo unspecified)
IC50 (Hepatitis C virus [3]): 30 nM

CC1(C)COC(=O)N1C1CCN(C(=O)c2nc3c(C(F)(F)F)cc(-c4ccoc4)cn3c2Cl)CC1
solubility [4]: > 500 µM | EC50 (Hepatitis C virus [1]): 33000 nM | EC50 (Hepatitis C virus [2]): 31000 nM | IC50 (Hepatitis C virus [3]): 9000 nM

O=C(c1nc2c(C(F)(F)F)cc(-c3ccoc3)cn2c1Cl)N1CCC(N2C(=O)COC2=O)CC1
AUC(0-t) at 24 h [5]: 1100 ng·h/mL | bioavailability [6]: 60% | half-life [7]: 3 h | clearance [8]: 46 mL/min/kg | Vd [9]: 3.1 L/kg | solubility [4]: > 500 µM | EC50 (Hepatitis C virus [1]): 20 nM | EC50 (Hepatitis C virus [2]): 51 nM | IC50 (Hepatitis C virus [3]): 35 nM

CN1CCN(C(=O)c2nc3c(C(F)(F)F)cc(-c4ccoc4)cn3c2Cl)CC1=O
solubility [4]: > 500 µM | EC50 (Hepatitis C virus [1]): 18000 nM | EC50 (Hepatitis C virus [2]): 36000 nM | IC50 (Hepatitis C virus [3]): 1200 nM

O=C(c1nc2c(C(F)(F)F)cc(-c3ccoc3)cn2c1Cl)N1CCN(c2ccccc2)C(=O)C1
EC50 (Hepatitis C virus [1]): 430 nM | EC50 (Hepatitis C virus [2]): 160 nM | IC50 (Hepatitis C virus [3]): 24 nM

O=C(c1nc2c(C(F)(F)F)cc(-c3ccoc3)cn2c1Cl)N1CCN([C@H]2CC[C@@H](O)CC2)C(=O)C1
solubility [4]: > 500 µM | EC50 (Hepatitis C virus [1]): 150 nM | EC50 (Hepatitis C virus [2]): 300 nM | IC50 (Hepatitis C virus [3]): 250 nM

O=C(c1nc2c(C(F)(F)F)cc(C3CC3)cn2c1Cl)N1CCN([C@H]2CC[C@H](O)CC2)C(=O)C1
bioavailability [10]: 65% | AUC(0-t) at 24 h [11]: 52000 ng·h/mL | Vd [12]: 0.9 L/kg | half-life [13]: 10 h | clearance [14]: 1.1 mL/min/kg | Ratio EC50 (Hepatitis C virus [15]): >100 | Ratio EC50 (Hepatitis C virus [16]): >100 | EC50 (Hepatitis C virus [17]): 1 nM | EC50 (Hepatitis C virus [18]): 1 nM | EC50 (Hepatitis C virus [19]): 1 nM | EC50 (Hepatitis C virus [20]): 27 nM | EC50 (Hepatitis C virus [21]): 38 nM | EC50 (Hepatitis C virus [22]): 53 nM | EC50 (Hepatitis C virus [23]): 800 nM | EC50 (Hepatitis C virus [24]): 200 nM | AUC(0-t) at 24 h [5]: 3800 ng·h/mL | bioavailability [6]: 98% | half-life [7]: 3 h | clearance [8]: 20 mL/min/kg | Vd [9]: 4.1 L/kg | solubility [4]: > 500 µM | inhibition (INH) (Cytochrome P450 3A4): Not Active | inhibition (INH) (Cytochrome P450 2D6): Not Active | inhibition (INH) (Cytochrome P450 2C19): Not Active | inhibition (INH) (Cytochrome P450 1A2): Not Active | inhibition (INH) (Cytochrome P450 2C9): Not Active | Drug metabolism (Liver microsomes [25]): Not Active | Drug metabolism (Liver microsomes [26]): Not Active | EC50 (Hepatitis C virus [1]): 0.81 nM | EC50 (Hepatitis C virus [2]): 5.4 nM | IC50 (Hepatitis C virus [3]): 60 nM

O=C(c1nc2c(C(F)(F)F)cc(-c3ccoc3)cn2c1Cl)N1CCC(c2cccs2)CC1
EC50 (Hepatitis C virus [1]): 220 nM | EC50 (Hepatitis C virus [2]): 110 nM | IC50 (Hepatitis C virus [3]): 5.3 nM
